These results are taken from PMC11597202, “Novel Thiazole-Fused [4,5-g] or [5,4-g]Quinazolin-8-ones and Their Quinazoline Analogues: Synthesis and Biological Evaluation” (Pharmaceuticals, 2024).

Series [1] can be described thus: In vitro cytotoxic assay, MDA-MB-468. The class given is cell-based. To be noted: human, MDA-MB-468 cells (breast cancer cell line); read-out: In vitro cytotoxic activity IC50, MBA-MB4-68. How it is done: (§1) Skin normal fibroblastic cells were purchased from Lonza (Basel, Switzerland). […] All culture media were supplemented by 10% of FBS, 1% of penicillin–streptomycin and 2 mM glutamine.
(§2) Chemicals were solubilized in DMSO at a concentration of 10 mM (stock solution) and diluted in culture medium to the desired final concentrations. […] Cells were plated in 96-well plates (4000 cells/well). Twenty-four hours after seeding, the cells were exposed to chemicals. […] Image acquisition and analysis were performed using a Cellomics ArrayScan VTI/HCS Reader (ThermoScientific, Les Ulis, France). The survival percentages were calculated as the percentage of cell number after compound treatment over cell number after DMSO treatment. The relative IC50 values were calculated using the curve fitting XLfit 5.5.0.5 (idbs) integrated in Microsoft Excel as an add-on.
(§3) 4.3.1. Cell culture. Skin normal fibroblastic cells are purchased from Lonza (Basel, Switzerland). Huh7- […]
(§4) from ATCC (American Type Culture Collection). […]
(§5) supplemented by 10% of FBS, 1% of penicillin-streptomycin and 2 mM glutamine.
(§6) 4.3.2. Cytotoxic assay. Chemicals were solubilized in DMSO at a concentration of 10 mM (stock solution) and diluted in culture medium to the desired final concentrations. The dose effect cytotoxic assays (IC50 determination) were performed by increasing the concentrations of each chemical (final well […]
(§7) Cells were plated in 96-well plates
(§8) (4000 cells/well). Twenty-four hours after seeding, cells were exposed to chemicals. After 48h of treatment, cells were washed in PBS and fixed in cooled 90% ethanol/5% acetic acid for 20 min and the […]
(§9) Image acquisition and analysis were performed using a Cellomics ArrayScan VTI/HCS Reader (ThermoScientific). The survival percentages were calculated as the percentage of cell number after compound treatment over cell number after DMSO treatment. The relative IC50 were calculated using the curve fitting XLfit 5.5.0.5 (idbs) integrated in Microsoft Excel as an add-on. The 4 Parameter Logistic Model or Sigmoidal Dose-Response Model describing the sigmoid-shaped response pattern was used (fit = (A+[(B-A)/(1+[(C/x)^D])]) where fit is the response and X is the tested concentration of the compound. The lower asymptote is A (also referred to as the bottom of the curve or lower plateau or the min) and the upper asymptote is B (also referred to as the top of the curve or upper plateau or the max). The slope of the linear part of the curve is described by the factor D. The parameter C is the concentration corresponding to the response midway between A and B. C is called “relative IC50” because it refers to the maximum response obtained by a […]
(§10) The results are represented as the mean ± standard error (SE) calculated from at least three independent experiments.

Series [2] can be described thus: In vitro cytotoxic assay, Caco-2. Note: 0.1-25 µM tested. The settings on record: human, Caco-2 cells (colon cancer cell line). The class given is cell-based. How it is done: as §1, §2, §3, §4, §5, §6, §7, §8, §9, §10
Series [3] can be described thus: In vitro cytotoxic assay, PC-3. Note: 0.1-25 µM tested. The class given is cell-based. To be noted: human, PC-3 cells (prostate cancer cell line). How it is done:
as §1, §2, §3, §4, §5, §6, §7, §8, §9, §10

A short description of series [4]: In vitro cytotoxic assay, MCF-7. Note: 0.1-25 µM tested. The class given is cell-based. The settings on record: human, MCF-7 cells (breast cancer cell line). How it is done: as §1, §2, §3, §4, §5, §6, §7, §8, §9, §10
The nature of series [5]: In vitro cytotoxic assay, Huh7-D12. The settings on record: human, Huh7-D12 cells (liver cancer cell line). The class given is cell-based. How it is done: as §1, §2, §3, §4, §5, §6, §7, §8, §9, §10
The subject of a further series is seven tumor cell lines. The experiment in a line: In vitro cytotoxic assay, whole panel of cancer cell lines. The class given is cell-based, human. The settings on record: Homo sapiens; lowest to highest IC50 among the seven cancer cell lines, 48 h; read-out: IC50 span over the cancer cell lines. How it is done:
as §1, §2, §3, §4, §5, §6, §7, §8, §9, §10

The nature of series [6]: In vitro cytotoxic assay, HCT-116. The settings on record: human, HCT-116 cells (colon cancer cell line). The class given is cell-based. How it is done:
as §1, §2, §3, §4, §5, §6, §7, §8, §9, §10

The nature of series [7]: In vitro cytotoxic assay, MDA-MB-231. Note: 0.1-25 µM tested. The class given is cell-based. The settings on record: human, MDA-MB-231 cells (breast cancer cell line); read-out: In vitro cytotoxic activity IC50, MBA-MB-231. How it is done:
as §1, §2, §3, §4, §5, §6, §7, §8, §9, §10

One may read the IC50 as the concentration at which inhibition is half-maximal. With `N#Cc1nc2ccc3c(=O)n(Cc4ccccc4)cnc3c2s1` [Compound 5d, 7-Benzyl-6-oxo-6,7-dihydrothiazolo[4,5-h]quinazoline-2-carbonitrile], the IC50 at 48 h in series [1] was 11 µM; in series [2], 9 µM; in series [3], 11 µM; in [4], 12 µM; in [5] it was 18 µM; in series [6], 7 µM. The half-maximal inhibitory concentration (IC50) at 48 h in [7] stood at 14 µM. The IC50 in the series with seven tumor cell lines was in the range of 7 to 18 µM.

The melting point is the temperature, or range, at which the solid turns liquid. Compound `N#Cc1nc2cc3ncn(Cc4ccccc4)c(=O)c3cc2s1` [Compound 5b, 7-Benzyl-8-oxo-7,8-dihydrothiazolo[5,4-g]quinazoline-2-carbonitrile] had a melting point of 217 to 218 °C. Further, in series [1], the IC50 at 48 h came to 1 µM. The IC50 at 48 h in series [2] stood at 1 µM. In [3], this compound showed an IC50 at 48 h of 2 µM. This compound also displayed a concentration for half-maximal inhibition (IC50) at 48 h in [4] of 2 µM. In series [5], this compound came in with an IC50 at 48 h of 3 µM. Further, the IC50 with seven tumor cell lines lay in the range of 1 to 3 µM. Also, the half-maximal inhibitory concentration (IC50) at 48 h in series [6] turned out to be 2 µM. The IC50 at 48 h in series [7] is 3 µM.

As for `N#Cc1nc2cc3c(=O)n(Cc4ccccc4)cnc3cc2s1` [Compound 5a, 7-Benzyl-8-oxo-7,8-dihydrothiazolo[4,5-g]quinazoline-2-carbonitrile], the melting point fell in the range of 237 to 238 °C. Besides, in [1], the IC50 at 48 h turned out to be 11 µM. This compound also gave an IC50 at 48 h in series [2] of 10 µM. In series [3], this compound gave an IC50 at 48 h of 9 µM. For the same compound, inhibition in series [4] was half-maximal at 8 µM (IC50 at 48 h). Moreover, in series [5], the IC50 at 48 h is > 25 µM. Also, the IC50 in the series on seven tumor cell lines is 7 to 62 µM. Also, 7 µM corresponded to half-maximal inhibition in [6] (IC50 at 48 h). In addition, the IC50 at 48 h in [7] was > 25 µM.

`COc1ccc(Nc2ncnc3cc4nc(C#N)sc4cc23)c(F)c1` [Compound 14b, 8-[(2-Fluoro-4-methoxyphenyl)amino]thiazolo[5,4-g]quinazoline-2-carbonitrile]: the melting point was 255 to 256 °C.

For `COc1cccc2c1C(=O)c1c(O)c3c(c(O)c1C2=O)C[C@@](O)(C(=O)CO)C[C@@H]3O[C@H]1C[C@H](N)[C@H](O)[C@H](C)O1` [Doxo, Doxorubicin, reference compound], the IC50 at 48 h in series [1] worked out at 0.04 µM; in series [2] it was 0.03 µM; in series [3], 0.08 µM; in series [4], 0.05 µM; in series [5], 0.03 µM; in [6], 0.05 µM. For the same compound, in series [7], the IC50 at 48 h amounted to 0.02 µM.

Compound `COc1ccc(Nc2ncnc3cc4sc(C#N)nc4cc23)c(F)c1` [Compound 14a, 8-[(2-Fluoro-4-methoxyphenyl)amino]thiazolo[4,5-g]quinazoline-2-carbonitrile] registered a melting point of 259 to 260 °C.

With `CC(=O)O[C@H]1C(=O)[C@@]2(C)[C@H]([C@H](OC(=O)c3ccccc3)[C@]3(O)C[C@H](OC(=O)[C@H](O)[C@@H](NC(=O)c4ccccc4)c4ccccc4)C(C)=C1C3(C)C)[C@]1(OC(C)=O)CO[C@@H]1C[C@@H]2O` [Taxol, reference compound], the 50% inhibitory concentration (IC50) at 48 h is 0.003 µM in series [1]; 0.02 µM in series [2]; 0.004 µM in [3]; 0.006 µM in [4]; 0.016 µM in series [5]; 0.003 µM in series [6]. Further, the concentration for half-maximal inhibition (IC50) at 48 h in series [7] was determined as 0.01 µM.

Compound `N#Cc1nc2c(ccc3c(=O)n(Cc4ccccc4)cnc32)s1` [Compound 5c, 7-Benzyl-6-oxo-6,7-dihydrothiazolo[5,4-h]quinazoline-2-carbonitrile] registered a melting point of 273 to 274 °C. Further, the IC50 at 48 h in [1] was found to be 10 µM. The same compound yielded a 50% inhibitory concentration (IC50) at 48 h in series [2] of 11 µM. In series [3], the IC50 at 48 h worked out at 12 µM. Besides, the half-maximal inhibitory concentration (IC50) at 48 h in series [4] is 16 µM. Further, the IC50 at 48 h in series [5] worked out at 17 µM. Further, the IC50 in the series on seven tumor cell lines fell in the range of 4 to 24 µM. For the same compound, half-maximal inhibition in [6] (IC50 at 48 h) required 4 µM. In addition, in series [7], the IC50 at 48 h stood at 24 µM.
